Each structure is given as a SMILES string. Bounds are passed on as bounds.

For one experiment, the target named is T1, F508del (Homo sapiens, UniProt P13569, DEL508-508).
T1 construct: expressed in transfected cells
T1 sequence (P13569 with tags, fused parts or gaps DEL508-508): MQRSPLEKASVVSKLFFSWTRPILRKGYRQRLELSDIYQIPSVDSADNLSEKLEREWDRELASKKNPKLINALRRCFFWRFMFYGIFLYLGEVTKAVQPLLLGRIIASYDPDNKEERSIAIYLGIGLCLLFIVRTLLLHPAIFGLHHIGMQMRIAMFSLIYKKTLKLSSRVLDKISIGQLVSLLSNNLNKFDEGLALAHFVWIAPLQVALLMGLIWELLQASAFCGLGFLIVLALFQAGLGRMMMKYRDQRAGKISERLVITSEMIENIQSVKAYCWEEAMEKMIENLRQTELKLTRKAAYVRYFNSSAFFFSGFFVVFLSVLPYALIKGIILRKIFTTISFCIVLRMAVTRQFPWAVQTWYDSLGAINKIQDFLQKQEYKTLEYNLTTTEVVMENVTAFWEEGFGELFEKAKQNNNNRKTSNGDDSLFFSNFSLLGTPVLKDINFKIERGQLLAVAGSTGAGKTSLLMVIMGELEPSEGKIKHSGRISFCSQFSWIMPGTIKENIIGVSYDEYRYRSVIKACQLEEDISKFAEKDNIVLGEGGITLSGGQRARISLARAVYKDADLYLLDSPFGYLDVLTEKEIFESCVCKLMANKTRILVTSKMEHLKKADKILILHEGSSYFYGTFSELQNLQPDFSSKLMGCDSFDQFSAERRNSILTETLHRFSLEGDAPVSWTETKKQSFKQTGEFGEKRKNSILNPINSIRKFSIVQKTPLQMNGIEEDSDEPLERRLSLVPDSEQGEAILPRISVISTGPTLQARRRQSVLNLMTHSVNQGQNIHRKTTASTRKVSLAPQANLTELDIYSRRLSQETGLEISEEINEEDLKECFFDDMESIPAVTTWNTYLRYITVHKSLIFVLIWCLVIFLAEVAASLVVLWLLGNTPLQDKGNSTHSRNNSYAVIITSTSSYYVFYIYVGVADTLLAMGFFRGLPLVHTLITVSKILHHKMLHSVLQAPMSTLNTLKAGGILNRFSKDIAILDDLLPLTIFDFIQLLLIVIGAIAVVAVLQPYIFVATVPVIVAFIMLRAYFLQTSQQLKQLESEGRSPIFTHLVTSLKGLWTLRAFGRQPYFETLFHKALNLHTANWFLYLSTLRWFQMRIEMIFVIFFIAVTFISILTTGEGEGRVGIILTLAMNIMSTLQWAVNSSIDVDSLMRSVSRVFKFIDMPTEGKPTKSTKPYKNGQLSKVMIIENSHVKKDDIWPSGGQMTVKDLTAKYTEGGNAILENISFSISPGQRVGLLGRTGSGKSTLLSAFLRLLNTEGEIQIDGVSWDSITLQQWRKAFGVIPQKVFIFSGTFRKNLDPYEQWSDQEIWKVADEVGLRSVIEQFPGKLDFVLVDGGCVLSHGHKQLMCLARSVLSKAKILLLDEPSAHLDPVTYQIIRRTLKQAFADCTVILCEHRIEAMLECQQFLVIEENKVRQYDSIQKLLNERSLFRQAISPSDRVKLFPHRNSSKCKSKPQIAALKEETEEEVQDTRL
Kind of experiment: Protocol 2: FRET membrane potential optical assay (VIPR), identification of correction compounds. The format is cell-based. The following applies: F508del CFTR modulator activity; compounds of Table 1. The gist of the method:
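Mouse NIH3T3 cells, stable F508del; cpd 16 hrs, 37° C., serum-free; pos ctrl 27° C. 16 hrs. Rinse in Krebs Ringers, dye load, then add 10 μM forskolin + 20 μM genistein with Cl^−-free (gluconate) medium; depolarization by FRET voltage dyes.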
For orientation: EC30 means the point of the concentration-response curve where the effect stands at 30%. With `CC(C)COc1cc(F)cc(-c2ccc(C(=O)NS(=O)(=O)c3cccc(N)n3)c(C3CC(C)(C)CC3(C)C)n2)c1` (single isomer, unassigned) [Compound 2492, N-[(6-amino-2-pyridyl)sulfonyl]-6-(3-fluoro-5-isobutoxy-phenyl)-2-(2,2,4,4-tetramethylcyclopentyl)pyridine-3-carboxamide], the EC30 result is “+++ (“+++” means <3 uM)”.

Staying with this experiment, now noted: F508del CFTR modulator activity; compounds of Table 1; read-out: EC30.
For the molecule `CC1CN(c2ncccc2C(=O)NS(=O)(=O)c2cccc(Oc3cccc4cccnc34)n2)C(C)(C)C1` (centres unmarked) [Compound 2333, N—[[6-(8-quinolyloxy)-2-pyridyl]sulfonyl]-2-(2,2,4-trimethylpyrrolidin-1-yl)pyridine-3-carboxamide], the EC30 fell in the range of 3 to 10 µM.
In the case of `CC(C)Cc1ccc(-c2cnc(N3CC(C)CC3(C)C)c(C(=O)NS(=O)(=O)c3cccc(N)n3)c2)cc1` (centres unmarked) [Compound 2395, N-[(6-amino-2-pyridyl)sulfonyl]-5-(4-isobutylphenyl)-2-(2,2,4-trimethylpyrrolidin-1-yl)pyridine-3-carboxamide], the EC30 was below 3 µM.
On to `CCCC(C)(C)Oc1cccc(S(=O)(=O)NC(=O)c2cccnc2N2CC(C)CC2(C)C)n1` (centres unmarked) [Compound 2130, N—[[6-(1,1-dimethylbutoxy)-2-pyridyl]sulfonyl]-2-(2,2,4-trimethylpyrrolidin-1-yl)pyridine-3-carboxamide], for which the EC30 is below 3 µM.
`C[C@@H]1CN(c2nc(-c3ccc(OC(F)(F)F)cc3)ccc2C(=O)NS(=O)(=O)c2ccc[nH]c2=O)C(C)(C)C1` [Compound 2234, N-[(2-oxo-1H-pyridin-3-yl)sulfonyl]-6-[4-(trifluoromethoxy)phenyl]-2-[(4S)-2,2,4-trimethylpyrrolidin-1-yl]pyridine-3-carboxamide]: the EC30 is below 3 µM.
The same measure, in the same setting: for `CC1CN(c2ncccc2C(=O)NS(=O)(=O)c2cccc(N3CCOCC3)n2)C(C)(C)C1` (centres unmarked) [Compound 2464, N-[(6-morpholino-2-pyridyl)sulfonyl]-2-(2,2,4-trimethylpyrrolidin-1-yl)pyridine-3-carboxamide] the value was 3 to 10 µM; for `CC(C)(C)c1ccc(C(=O)NS(=O)(=O)c2cccc(N)n2)c(N2CCC(CC3CC3)C2(C)C)n1` (centres unmarked) [Compound 2242, N-[(6-amino-2-pyridyl)sulfonyl]-6-tert-butyl-2-[3-(cyclopropylmethyl)-2,2-dimethyl-pyrrolidin-1-yl]pyridine-3-carboxamide], below 3 µM.
On the same count and under the same terms, for `COc1cccc(Oc2cccc(S(=O)(=O)NC(=O)c3cccnc3N3CC(C)CC3(C)C)n2)c1OC` (centres unmarked) [Compound 2233, N—[[6-(2,3-dimethoxyphenoxy)-2-pyridyl]sulfonyl]-2-(2,2,4-trimethylpyrrolidin-1-yl)pyridine-3-carboxamide] the value was below 3 µM.
Regarding `COc1cccc(-c2ccc(C(=O)NS(=O)(=O)N3CC[C@H](N)C3)c(N3C[C@@H](C)CC3(C)C)n2)c1` [Compound 2240, N-[(3S)-3-aminopyrrolidin-1-yl]sulfonyl-6-(3-methoxyphenyl)-2-[(4S)-2,2,4-trimethylpyrrolidin-1-yl]pyridine-3-carboxamide], the EC30 is 3 to 10 µM.
Still for that read-out and setting: for `Cc1ccc(-c2ccc(C(=O)NS(=O)(=O)c3ccc[nH]c3=O)c(N3C[C@@H](C)CC3(C)C)n2)c(C)c1` [Compound 2037, 6-(2,4-dimethylphenyl)-N-[(2-oxo-1H-pyridin-3-yl)sulfonyl]-2-[(4S)-2,2,4-trimethylpyrrolidin-1-yl]pyridine-3-carboxamide] the value was below 3 µM; for `COc1ccc(-c2ccc(C(=O)NS(=O)(=O)c3ccc[nH]c3=O)c(N3C[C@@H](C)CC3(C)C)n2)c(C)c1` [Compound 2469, 6-(4-methoxy-2-methyl-phenyl)-N-[(2-oxo-1H-pyridin-3-yl)sulfonyl]-2-[(4S)-2,2,4-trimethylpyrrolidin-1-yl]pyridine-3-carboxamide], 3 to 10 µM; for `Cc1cc(-c2ccc(C(=O)NS(=O)(=O)c3cccc(N)n3)c(N3C[C@@H](C)CC3(C)C)n2)cc(OCC(C)C)n1` [Compound 2010, N-[(6-amino-2-pyridyl)sulfonyl]-6-(2-isobutoxy-6-methyl-4-pyridyl)-2-[(4S)-2,2,4-trimethylpyrrolidin-1-yl]pyridine-3-carboxamide], below 3 µM.
On the same count and under the same terms, for `Cc1nc(-c2cccc(Oc3cccc(S(=O)(=O)NC(=O)c4cccnc4N4CC(C)CC4(C)C)n3)c2)no1` (centres unmarked) [Compound 2263, N—[[6-[3-(5-methyl-1,2,4-oxadiazol-3-yl)phenoxy]-2-pyridyl]sulfonyl]-2-(2,2,4-trimethylpyrrolidin-1-yl)pyridine-3-carboxamide] the value was below 3 µM.

The same experiment, now with this note: Table 3; compounds of Table 1 as modulators of CFTR activity; protocol not stated.
As to `COc1ccc(F)cc1-c1cc(C(=O)NS(=O)(=O)c2ccccc2)n(Cc2c(C)cccc2C)n1` [Compound 27, N-(benzenesulfonyl)-2-[(2,6-dimethylphenyl)methyl]-5-(5-fluoro-2-methoxy-phenyl)pyrazole-3-carboxamide], the EC30 entry is on record as “+++ (“+++” means <3 uM)”.
Take `COc1ccc(S(=O)(=O)NC(=O)C2c3ccccc3CN2Cc2c(C)cc(C)cc2C)cn1` (centres unmarked) [Compound 200, N-[(6-methoxy-3-pyridyl)sulfonyl]-2-[(2,4,6-trimethylphenyl)methyl]isoindoline-1-carboxamide]: the EC30 result was “++ (“++” means between 3 uM and 10 uM)”.
Still for that read-out and setting: for `Cc1cccc(C)c1CN1Cc2ccccc2C1(C)C(=O)NS(=O)(=O)c1cccc(N)n1` (centres unmarked) [Compound 790, N-[(6-amino-2-pyridyl)sulfonyl]-2-[(2,6-dimethylphenyl)methyl]-1-methyl-isoindoline-1-carboxamide] the value was “+++ (“+++” means <3 uM)”.
The same measure, in the same setting: for `Cc1cc(C)c(Cn2c(C(=O)NS(=O)(=O)c3ccccc3)cc3c(C)cccc32)c(C)c1` [Compound 143, N-(benzenesulfonyl)-4-methyl-1-[(2,4,6-trimethylphenyl)methyl]indole-2-carboxamide] the value was “+++ (“+++” means <3 uM)”; for `COC(=O)C(C)Oc1ccc(-c2ccc(C(=O)NS(=O)(=O)c3cccc(N)n3)c(N3[C@H](C)CC[C@@H]3C)n2)cn1` (stereo partly drawn) [Compound 723, methyl 2-[[5-[5-[(6-amino-2-pyridyl)sulfonylcarbamoyl]-6-[(2S,5R)-2,5-dimethylpyrrolidin-1-yl]-2-pyridyl]-2-pyridyl]oxy]propanoate], “++ (“++” means between 3 uM and 10 uM)”; for `COc1c(C)cccc1-c1cc(C(=O)NS(=O)(=O)c2cccc(N)c2)n(Cc2c(C)cc(C)cc2C)n1` [Compound 208, N-(3-aminophenyl)sulfonyl-5-(2-methoxy-3-methyl-phenyl)-2-[(2,4,6-trimethylphenyl)methyl]pyrazole-3-carboxamide], “+++ (“+++” means <3 uM)”.
On to `CC(C)COc1ccnc(-c2ccc(C(=O)NS(=O)(=O)c3cccc(N)n3)c(N3[C@H](C)CC[C@@H]3C)n2)c1` [Compound 389, N-[(6-amino-2-pyridyl)sulfonyl]-2-[(2S,5R)-2,5-dimethylpyrrolidin-1-yl]-6-(4-isobutoxy-2-pyridyl)pyridine-3-carboxamide], for which the EC30 entry is “+++ (“+++” means <3 uM)”.
As for `COc1ccc2c(c1)CN(Cc1c(C)cc(C)cc1C)C2(C)C(=O)NS(=O)(=O)c1cccc(N)n1` (centres unmarked) [Compound 406, N-[(6-amino-2-pyridyl)sulfonyl]-5-methoxy-1-methyl-2-[(2,4,6-trimethylphenyl)methyl]isoindoline-1-carboxamide], the EC30 entry is listed as “+++ (“+++” means <3 uM)”.
Still for that read-out and setting: for `Cc1cc(C)c(Cn2cc(C(C)(C)C)cc2C(=O)NS(=O)(=O)c2cccc(N)c2)c(C)c1` [Compound 195, N-(3-aminophenyl)sulfonyl-4-tert-butyl-1-[(2,4,6-trimethylphenyl)methyl]pyrrole-2-carboxamide] the value was “+++ (“+++” means <3 uM)”; for `CCOc1ccc(-c2nc(N3CC(C)CC3(C)C)c(C(=O)NS(=O)(=O)c3cccc(N)n3)cc2C)cc1` (centres unmarked) [Compound 455, N-[(6-amino-2-pyridyl)sulfonyl]-6-(4-ethoxyphenyl)-5-methyl-2-(2,2,4-trimethylpyrrolidin-1-yl)pyridine-3-carboxamide], “+++ (“+++” means <3 uM)”; for `COc1cccc(-c2cc(C(=O)NS(=O)(=O)c3ccccc3)n(Cc3c(C)cccc3C)n2)c1` [Compound 176, N-(benzenesulfonyl)-2-[(2,6-dimethylphenyl)methyl]-5-(3-methoxyphenyl)pyrazole-3-carboxamide], “+++ (“+++” means <3 uM)”.
The same measure, in the same setting: for `COc1cccc2c1cc(C(=O)NS(=O)(=O)c1cccc(N)c1)n2Cc1c(C)cccc1C` [Compound 168, N-(3-aminophenyl)sulfonyl-1-[(2,6-dimethylphenyl)methyl]-4-methoxy-indole-2-carboxamide] the value was “+++ (“+++” means <3 uM)”.
For `Cc1cccc(C)c1Cn1nc(-c2cccc(OC(F)(F)F)c2)cc1C(=O)NS(=O)(=O)c1ccccc1` [Compound 225, N-(benzenesulfonyl)-2-[(2,6-dimethylphenyl)methyl]-5-[3-(trifluoromethoxy)phenyl]pyrazole-3-carboxamide], the EC30 result is reported as “+++ (“+++” means <3 uM)”.
In the case of `Cc1cc(C)c(Oc2nc3c(cc2C(=O)NS(=O)(=O)c2cccc(N)n2)CCCC3)c(C)c1` [Compound 285, N-[(6-amino-2-pyridyl)sulfonyl]-2-(2,4,6-trimethylphenoxy)-5,6,7,8-tetrahydroquinoline-3-carboxamide], the EC30 result is on record as “+++ (“+++” means <3 uM)”.
Still for that read-out and setting: for `CC1CC(C)CN(c2nc(C(C)(C)C)ccc2C(=O)NS(=O)(=O)c2cccc(N)n2)C1` (centres unmarked) [Compound 617, N-[(6-amino-2-pyridyl)sulfonyl]-6-tert-butyl-2-(3,5-dimethyl-1-piperidyl)pyridine-3-carboxamide] the value was “+++ (“+++” means <3 uM)”.
Still for that read-out and setting: for `CC(C)COc1cc(F)cc(-c2ccc(C(=O)NS(=O)(=O)c3cccc(N)n3)c(N3CC4C(C3)C4(C)C)n2)c1` (centres unmarked) [Compound 609, N-[(6-amino-2-pyridyl)sulfonyl]-2-(6,6-dimethyl-3-azabicyclo[3.1.0]hexan-3-yl)-6-(3-fluoro-5-isobutoxy-phenyl)pyridine-3-carboxamide] the value was “+++ (“+++” means <3 uM)”.
